US20220332764A1, “T CELL EPITOPES OF HCMV AND USES OF THEREOF” (EBERHARD KARLS UNIVERSITÄT TÜBINGEN, priority 2019, published 2022)
Like-named read-outs stand apart in the source and are kept apart here.

Key:
[1] = system: CD8+ / CD4+ T cells of donor PBMCs; assay: Intracellular cytokine staining (ICS; IFNγ, TNFα, CD107a); format: cell-based, human; conditions: for Intracellular staining: responding T-cell subset; for Intracellular cytokine staining: responding T-cell subset after peptide stimulation
Source text: PHA was used as positive control. […] (Cytofix/Cytoperm, BD Biosciences).

[2] = system: PBMCs of healthy HCMV-seropositive donors; assay: ex vivo IFNγ ELISpot without prestimulation; format: cell-based, human; conditions: for % Positive donors (ex vivo): IFNγ ELISpot ex vivo, donors previously tested positive; for ELISpot response rate (ex vivo): donors positively tested in ELISpots with 12d stimulation
Source text: (§1) PHA was used as positive control.

[3] = system: PBMCs of healthy HCMV-seropositive donors; assay: IFNγ ELISpot after 12 day stimulation (memory T-cell response); format: cell-based, human; conditions: for % Positive donors (after 12 days of stimulation): IFNγ ELISpot, HLA-matched seropositive donors; for ELISpot response rate (12 d stim.): 12-day amplification with IL-2 in vitro; for Positive donors as tested: positive / tested HLA-matched seropositive donors, positive: >10 spots/well and at least 3-fold negative control
Source text: as §1

HLA = conditions: Table 2, preferred dominant epitopes
[4] = system: CD8+ T cells of HLA-matched healthy donors; conditions: for Tetramer-staining: after 12 day amplification

Row | Sequence | Intracellular cytokine staining [1] | % Positive donors (ex vivo) [2] | % Positive donors (after 12 days of stimulation) [3] | Positive donors as tested [3] | Tetramer-staining [4] | Tetramer staining ([4]; Tested HLA B*07:02) | ELISpot response rate (ex vivo) ([2]; Tested HLA B*07:02) | ELISpot response rate (12 d stim.) ([3]; Tested HLA B*07:02) | also measured
1 | GLFAVENFL (listed as Human cytomegalovirus) [SEQ ID NO: 4] | CD4 | 0.0% | 53.9% | 7/13 |  |  |  |  | Intracellular staining ([1]; Tested HLA A*02:01): CD4; ELISpot response rate (ex vivo) ([2]; Tested HLA A*02:01): 0.0; ELISpot response rate (12 d stim.) ([3]; Tested HLA A*02:01): 53.9; actual HLA restriction (HLA): Class II
2 | SESEFIVRY (listed as Human cytomegalovirus) [SEQ ID NO: 43] | CD8 | 37.5% | 40.0% | 8/20 | Positive |  |  |  | 
3 | SPRDAWIVL (listed as Human cytomegalovirus) [SEQ ID NO: 26] | CD8 | 20.0% | 68.2% | 15/22 | Positive | positive | 20.0 | 68.2 | Intracellular staining ([1]; Tested HLA B*07:02): CD8
4 | SPRHLYISL (listed as Human cytomegalovirus) [SEQ ID NO: 29] | CD4/CD8 | 0.0% | 50.0% | 11/22 | Positive | positive | 0.0 | 50.0 | 
5 | SPSRDRFVQL (listed as Human cytomegalovirus) [SEQ ID NO: 27] | Nega- | 33.3% | 66.7% | 14/21 | Positive | positive | 33.3 | 66.7 | 
6 | TLIVNLVEV (listed as Human cytomegalovirus) [SEQ ID NO: 3] | CD8 | 25.0% | 55.0% | 11/20 | Positive |  |  |  | Intracellular staining ([1]; Tested HLA A*02:01): CD8; Tetramer staining ([4]; Tested HLA A*02:01): positive; ELISpot response rate (ex vivo) ([2]; Tested HLA A*02:01): 25.0; ELISpot response rate (12 d stim.) ([3]; Tested HLA A*02:01): 55.0
7 | TPRVTGGGAM (listed as Human cytomegalovirus) [SEQ ID NO: 25] | CD8 | 100.0% | 81.6% | 31/38 | Positive | positive | 100.0 | 81.6 | Intracellular staining ([1]; Tested HLA B*07:02): CD8
8 | YADPFFLKY (listed as Human cytomegalovirus) [SEQ ID NO: 51] | CD8 | 90.9% | 100.0% | 15/15 | Positive |  |  |  | Intracellular staining ([1]; Tested HLA A*01:01): CD8; Tetramer staining ([4]; Tested HLA A*01:01): positive; ELISpot response rate (ex vivo) ([2]; Tested HLA A*01:01): 90.9; ELISpot response rate (12 d stim.) ([3]; Tested HLA A*01:01): 100.0
9 | YLVRRPMTI (listed as Human cytomegalovirus) [SEQ ID NO: 80] | Nega- | 33.3% | 50.0% | 11/22 | Positive |  |  |  | Tetramer staining ([4]; Tested HLA B*08:01): positive; ELISpot response rate (ex vivo) ([2]; Tested HLA B*08:01): 33.3; ELISpot response rate (12 d stim.) ([3]; Tested HLA B*08:01): 50.0
10 | YPRPPGSGL (listed as Human cytomegalovirus) [SEQ ID NO: 24] | Nega- | 25.0% | 86.4% | 19/22 | Positive | positive | 25.0 | 86.4 | 
